Data as given in US8846947B2, “Benzimidazoles and related analogs as sirtuin modulators” (GlaxoSmithKline LLC, priority 2008, dated 2014).
Where two headings read alike, the source gives them in different places.

Target: T1, SIRT1 (Homo sapiens, UniProt Q96EB6)
T1 sequence (Q96EB6 1-747): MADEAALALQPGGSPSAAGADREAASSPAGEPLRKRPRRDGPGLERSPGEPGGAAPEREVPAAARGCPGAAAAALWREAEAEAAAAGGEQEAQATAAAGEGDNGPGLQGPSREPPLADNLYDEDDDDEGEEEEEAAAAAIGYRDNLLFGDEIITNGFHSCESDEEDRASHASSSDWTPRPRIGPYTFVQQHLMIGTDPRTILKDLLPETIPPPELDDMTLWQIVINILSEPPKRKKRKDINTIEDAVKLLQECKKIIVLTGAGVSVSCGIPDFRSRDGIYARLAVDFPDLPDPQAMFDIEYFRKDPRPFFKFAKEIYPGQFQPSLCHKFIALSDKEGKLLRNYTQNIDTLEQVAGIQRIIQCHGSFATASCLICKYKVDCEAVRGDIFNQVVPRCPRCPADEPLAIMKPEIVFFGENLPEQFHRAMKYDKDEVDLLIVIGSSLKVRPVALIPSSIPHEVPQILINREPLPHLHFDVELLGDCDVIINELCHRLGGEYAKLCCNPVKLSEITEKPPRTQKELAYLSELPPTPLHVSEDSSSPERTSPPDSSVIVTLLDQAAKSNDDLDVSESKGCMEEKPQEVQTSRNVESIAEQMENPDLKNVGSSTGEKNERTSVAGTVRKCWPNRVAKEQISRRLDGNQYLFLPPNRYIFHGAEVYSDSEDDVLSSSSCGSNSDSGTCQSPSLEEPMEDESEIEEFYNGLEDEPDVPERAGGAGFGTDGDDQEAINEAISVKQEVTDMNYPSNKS
Experiment: Mass spectrometry based SIRT1 deacetylase activation assay (acetylated p53-derived peptide substrate)
Type: biochemical

[1] = 0.5 μM peptide substrate, 120 μM βNAD+, 10 nM SIRT1, 25 min at 25° C.
[2] = 0.5 μM peptide substrate, 120 μM βNAD+, 10 nM SIRT1, 25 min at 25° C., read-out: EC1.5

| SMILES | EC1.5 | Fold Act. (percent maximum fold activation) | Fold Act. (percent maximum fold activation) [1] | EC1.5 [2] |
| --- | --- | --- | --- | --- |
| O=C(Nc1cccc2[nH]c(-c3cc(F)ccc3C(F)(F)F)nc12)c1cnccn1 [Compound 387] | B (EC1.5 1-25 uM) | A (Fold activation >200%) | – | – |
| O=C(Nc1cccc2[nH]c(-c3cccc(N4CCOCC4)c3)nc12)c1cnccn1 [Compound 388] | B (EC1.5 1-25 uM) | A (Fold activation >200%) | – | – |
| O=C(Nc1cccnc1)c1cccc2[nH]c(-c3cccc(N4CCOCC4)n3)nc12 [Compound 389] | B (EC1.5 1-25 uM) | A (Fold activation >200%) | – | – |
| O=C(Nc1cccnc1)c1cccc2[nH]c(-c3cccc(N4CCCCC4)n3)nc12 [Compound 390] | B (EC1.5 1-25 uM) | B (Fold Activation <200%) | – | – |
| O=C(Nc1cccc2[nH]c(-c3cccc(N4CCOCC4)c3)nc12)c1cscn1 [Compound 391] | B (EC1.5 1-25 uM) | A (Fold activation >200%) | – | – |
| O=C(Nc1cccc2[nH]c(-c3ccnn3-c3ccccc3)nc12)c1cscn1 [Compound 392] | B (EC1.5 1-25 uM) | A (Fold activation >200%) | – | – |
| Cc1nc(NC(=O)c2cccc3[nH]c(-c4ccc(Cl)cc4C(F)(F)F)nc23)sc1C [Compound 393] | A (EC1.5<1.0 uM) | A (Fold activation >200%) | – | – |
| Cc1cc(C)nc(NC(=O)c2cccc3[nH]c(-c4ccc(Cl)cc4C(F)(F)F)nc23)c1 [Compound 394] | A (EC1.5<1.0 uM) | A (Fold activation >200%) | – | – |
| Cc1nc(NC(=O)c2cccc3[nH]c(-c4ccnn4-c4ccccc4)nc23)sc1C [Compound 395] | A (EC1.5<1.0 uM) | A (Fold activation >200%) | – | – |
| Cc1cnc(NC(=O)c2cccc3[nH]c(-c4cccc(N5CCOCC5)c4)nc23)s1 [Compound 396] | A (EC1.5<1.0 uM) | A (Fold activation >200%) | – | – |
| O=C(NC1CCOC1=O)c1cccc2[nH]c(-c3cccc(N4CCOCC4)c3)nc12 (stereo not drawn) [Compound 397] | B (EC1.5 1-25 uM) | A (Fold activation >200%) | – | – |
| Cc1cc(C)nc(NC(=O)c2cccc3[nH]c(-c4cccc(N5CCOCC5)c4)nc23)c1 [Compound 398] | – | – | A (Fold activation >200%) | < 1000 nM |
| Cc1cc(NC(=O)c2cccc3[nH]c(-c4cccc(N5CCOCC5)c4)nc23)n(C)n1 [Compound 399] | – | – | A (Fold activation >200%) | < 1000 nM |
| O=C(Nc1nccs1)c1cccc2[nH]c(-c3cn4ccsc4n3)nc12 [Compound 400] | – | – | A (Fold activation >200%) | < 1000 nM |
| CC1(C)Cc2cccc(-c3nc4c(C(=O)Nc5cccnc5)cccc4[nH]3)c2O1 [Compound 401] | – | – | A (Fold activation >200%) | 1000 to 25000 nM |
| CS(=O)(=O)c1cccc(-c2nc3c(C(=O)Nc4nccs4)cccc3[nH]2)c1 [Compound 402] | – | – | A (Fold activation >200%) | < 1000 nM |
| CS(=O)(=O)c1cccc(-c2nc3c(C(=O)Nc4ccccn4)cccc3[nH]2)c1 [Compound 403] | – | – | A (Fold activation >200%) | 1000 to 25000 nM |
| CS(=O)(=O)c1cccc(-c2nc3c(C(=O)Nc4cccnc4)cccc3[nH]2)c1 [Compound 404] | – | – | A (Fold activation >200%) | < 1000 nM |
| CS(=O)(=O)c1ccc(-c2nc3c(C(=O)Nc4nccs4)cccc3[nH]2)cc1 [Compound 405] | – | – | B (Fold Activation <200%) | 1000 to 25000 nM |
| CS(=O)(=O)c1ccc(-c2nc3c(C(=O)Nc4ccccn4)cccc3[nH]2)cc1 [Compound 406] | – | – | A (Fold activation >200%) | 1000 to 25000 nM |
| CS(=O)(=O)c1ccc(-c2nc3c(C(=O)Nc4cccnc4)cccc3[nH]2)cc1 [Compound 407] | – | – | B (Fold Activation <200%) | > 25000 nM |
| Cc1nc(-c2ccccc2)sc1-c1nc2c(C(=O)Nc3nccs3)cccc2[nH]1 [Compound 408] | – | – | A (Fold activation >200%) | < 1000 nM |
| Cc1nc(-c2ccccc2)sc1-c1nc2c(C(=O)Nc3ccccn3)cccc2[nH]1 [Compound 409] | – | – | A (Fold activation >200%) | < 1000 nM |

| SMILES | EC1.5 | Fold Act. (percent maximum fold activation) | Fold Act. (percent maximum fold activation) [1] | EC1.5 [2] |
| --- | --- | --- | --- | --- |
| Cc1nc(-c2ccccc2)sc1-c1nc2c(C(=O)Nc3cccnc3)cccc2[nH]1 [Compound 410] | – | – | B (Fold Activation <200%) | < 1000 nM |
| Cc1nc(N2CCOCC2)sc1-c1nc2c(C(=O)Nc3nccs3)cccc2[nH]1 [Compound 411] | – | – | A (Fold activation >200%) | < 1000 nM |
| Cc1nc(N2CCOCC2)sc1-c1nc2c(C(=O)Nc3ccccn3)cccc2[nH]1 [Compound 412] | – | – | A (Fold activation >200%) | < 1000 nM |
| Cc1nc(N2CCOCC2)sc1-c1nc2c(C(=O)Nc3cccnc3)cccc2[nH]1 [Compound 413] | – | – | A (Fold activation >200%) | < 1000 nM |
| O=C(Nc1nccs1)c1cccc2[nH]c(-c3ccc(N4CCOCC4)cc3C(F)(F)F)nc12 [Compound 414] | – | – | A (Fold activation >200%) | < 1000 nM |
| O=C(Nc1ccccn1)c1cccc2[nH]c(-c3ccc(N4CCOCC4)cc3C(F)(F)F)nc12 [Compound 415] | – | – | A (Fold activation >200%) | < 1000 nM |
| O=C(Nc1cccc2[nH]c(-c3ccc(Cl)cc3C(F)(F)F)nc12)c1cscn1 [Compound 416] | – | – | B (Fold Activation <200%) | 1000 to 25000 nM |
| O=C(Nc1cccc2[nH]c(-c3ccc(Cl)cc3C(F)(F)F)nc12)c1ccccn1 [Compound 417] | – | – | A (Fold activation >200%) | 1000 to 25000 nM |
| O=C(Nc1cccc2[nH]c(-c3ccc(Cl)cc3C(F)(F)F)nc12)c1cccnc1 [Compound 418] | – | – | A (Fold activation >200%) | 1000 to 25000 nM |
| O=C(Nc1cccc2[nH]c(-c3ccc(Cl)cc3C(F)(F)F)nc12)c1cnccn1 [Compound 419] | – | – | A (Fold activation >200%) | 1000 to 25000 nM |
| O=C(NCc1ccccn1)c1cccc2[nH]c(-c3ccccc3C(F)(F)F)nc12 [Compound 420] | – | – | A (Fold activation >200%) | 1000 to 25000 nM |
| O=C(NC1CCOCC1)c1cccc2[nH]c(-c3ccccc3C(F)(F)F)nc12 [Compound 421] | – | – | B (Fold Activation <200%) | > 25000 nM |
| Cc1cc(C)nc(NC(=O)c2cccc3[nH]c(-c4ccnn4-c4ccccc4)nc23)c1 [Compound 422] | – | – | A (Fold activation >200%) | < 1000 nM |
| Cc1cc(NC(=O)c2cccc3[nH]c(-c4ccnn4-c4ccccc4)nc23)n(C)n1 [Compound 423] | – | – | A (Fold activation >200%) | 1000 to 25000 nM |
| O=C1COc2ccc(-c3nc4c(C(=O)Nc5nccs5)cccc4[nH]3)cc2N1 [Compound 424] | – | – | B (Fold Activation <200%) | < 1000 nM |
| CCCN1CCCc2ccc(-c3nc4c(C(=O)Nc5nccs5)cccc4[nH]3)cc21 [Compound 425] | – | – | A (Fold activation >200%) | 1000 to 25000 nM |
| O=C(Nc1nccs1)c1cccc2[nH]c(-c3cccc(OC4CCNCC4)c3)nc12 [Compound 426] | – | – | A (Fold activation >200%) | < 1000 nM |
| O=C(Nc1nccs1)c1cccc2[nH]c(-c3cccc4c3OC(F)(F)O4)nc12 [Compound 427] | – | – | A (Fold activation >200%) | < 1000 nM |
| O=C(Nc1nccs1)c1cccc2[nH]c(-c3ccccc3OC3CCNCC3)nc12 [Compound 428, 2-(2-(piperidin-4-yloxy)phenyl)-N-(thiazol-2-yl)-1H-benzo[d]imidazole-4-carboxamide] | – | – | A (Fold activation >200%) | < 1000 nM |
| O=C(Nc1ccccn1)c1cccc2[nH]c(-c3cc(Cl)ccc3C(F)(F)F)nc12 [Compound 429] | – | – | B (Fold Activation <200%) | > 25000 nM |
| O=C(Nc1cccnc1)c1cccc2[nH]c(-c3ccc(N4CCOCC4)cc3C(F)(F)F)nc12 [Compound 430, 2-(4-morpholino-2-(trifluoromethyl)phenyl)-N-(pyridin-3-yl)-1H-benzo[d]imidazole-4-carboxamide] | – | – | A (Fold activation >200%) | < 1000 nM |
| O=C(NC1CCNCC1)c1cccc2[nH]c(-c3ccccc3C(F)(F)F)nc12 [Compound 431] | – | – | B (Fold Activation <200%) | > 25000 nM |
